# Experimental data taken from US12084420B2, “Indoline compounds for inhibiting KIF18A” (Volastra Therapeutics, Inc., priority 2021, dated 2024).
# Read-outs that look alike come from different tables or passages of the source.
# What was measured:
# [1] = target: KIF18a-Microtubule Complex (Homo sapiens (Human), UniProt Q8NI77); assay: Binding kinetics to KIF18a-microtubule complex (global progress curve analysis); conditions: for kon (on-rate from binding kinetics assay) / koff (off-rate from binding kinetics assay): global progress curve analysis; for Ki: read-out: KI (determined from binding kinetic assay koff/kon), koff/kon; for koff: read-out: koff (off-rate from binding kinetics assay)
# Protocol: Binding Kinetics to KIF18a-Microtubule Complex
# Compound binding kinetics parameters (kon and koff) were determined by the method of global progress curve analysis (GPCA). […] ADP product levels were determined by the Promega® ADP-Glo assay. The time/dose-dependent progress curves were then globally fit to a Michaelis-Menten kinetics model with 1-step slow binding inhibition to derive both on-rate kon and off-rate koff values (Zhang, R., Wong, K. (2017): “High performance enzyme kinetics of turnover, activation and inhibition for translational drug discovery”, Expert Opinion on Drug Discovery, 2017 January; 12(1):17-37. doi: 10.1080/17460441.2017.1245721).
# [2] = target: hKIF18A (1-374) (Homo sapiens (Human), UniProt Q8NI77); assay: Inhibition of KIF18A microtubule-dependent ATPase activity (ADP-Glo)
# [3] = KIF18A microtubule-dependent ATPase activity, biochemical assay
# Chain of hKIF18A (1-374) (Q8NI77 whole entry, looked up): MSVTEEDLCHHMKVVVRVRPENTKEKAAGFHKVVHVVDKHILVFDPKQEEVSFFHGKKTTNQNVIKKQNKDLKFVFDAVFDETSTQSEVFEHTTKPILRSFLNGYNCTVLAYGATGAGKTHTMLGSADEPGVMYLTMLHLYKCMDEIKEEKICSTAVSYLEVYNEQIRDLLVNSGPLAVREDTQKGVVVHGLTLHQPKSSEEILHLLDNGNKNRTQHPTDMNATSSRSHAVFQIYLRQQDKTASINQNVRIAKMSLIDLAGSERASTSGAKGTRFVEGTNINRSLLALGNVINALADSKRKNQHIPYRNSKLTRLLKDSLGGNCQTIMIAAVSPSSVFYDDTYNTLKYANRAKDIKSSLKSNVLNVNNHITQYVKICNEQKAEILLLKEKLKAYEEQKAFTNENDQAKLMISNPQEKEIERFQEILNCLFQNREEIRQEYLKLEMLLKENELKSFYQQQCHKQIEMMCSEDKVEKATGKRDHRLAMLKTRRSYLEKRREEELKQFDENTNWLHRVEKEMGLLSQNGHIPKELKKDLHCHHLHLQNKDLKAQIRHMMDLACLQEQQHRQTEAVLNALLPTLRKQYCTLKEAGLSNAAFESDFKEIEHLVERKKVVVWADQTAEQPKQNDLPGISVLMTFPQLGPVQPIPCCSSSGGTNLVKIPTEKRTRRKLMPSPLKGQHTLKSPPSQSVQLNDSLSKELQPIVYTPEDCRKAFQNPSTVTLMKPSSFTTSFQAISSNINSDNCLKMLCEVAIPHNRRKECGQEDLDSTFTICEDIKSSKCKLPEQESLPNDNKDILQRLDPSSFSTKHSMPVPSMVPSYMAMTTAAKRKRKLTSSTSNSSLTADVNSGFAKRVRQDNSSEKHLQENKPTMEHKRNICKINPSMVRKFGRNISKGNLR
# Chain of hKIF18A (1-374) (Q2XVP4 whole entry partner, looked up): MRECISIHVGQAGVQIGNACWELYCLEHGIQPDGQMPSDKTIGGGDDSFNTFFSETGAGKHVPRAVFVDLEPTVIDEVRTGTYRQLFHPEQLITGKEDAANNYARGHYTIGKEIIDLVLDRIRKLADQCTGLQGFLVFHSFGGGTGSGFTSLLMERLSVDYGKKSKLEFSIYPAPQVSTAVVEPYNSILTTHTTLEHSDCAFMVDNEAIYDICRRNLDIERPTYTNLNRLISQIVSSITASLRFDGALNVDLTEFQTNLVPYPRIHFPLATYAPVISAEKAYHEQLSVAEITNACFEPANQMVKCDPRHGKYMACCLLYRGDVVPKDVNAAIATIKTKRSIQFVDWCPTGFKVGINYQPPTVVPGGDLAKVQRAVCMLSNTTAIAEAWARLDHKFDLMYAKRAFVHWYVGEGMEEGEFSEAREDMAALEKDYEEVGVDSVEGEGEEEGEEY
# Chain of hKIF18A (1-374) (P02554 whole entry partner, looked up): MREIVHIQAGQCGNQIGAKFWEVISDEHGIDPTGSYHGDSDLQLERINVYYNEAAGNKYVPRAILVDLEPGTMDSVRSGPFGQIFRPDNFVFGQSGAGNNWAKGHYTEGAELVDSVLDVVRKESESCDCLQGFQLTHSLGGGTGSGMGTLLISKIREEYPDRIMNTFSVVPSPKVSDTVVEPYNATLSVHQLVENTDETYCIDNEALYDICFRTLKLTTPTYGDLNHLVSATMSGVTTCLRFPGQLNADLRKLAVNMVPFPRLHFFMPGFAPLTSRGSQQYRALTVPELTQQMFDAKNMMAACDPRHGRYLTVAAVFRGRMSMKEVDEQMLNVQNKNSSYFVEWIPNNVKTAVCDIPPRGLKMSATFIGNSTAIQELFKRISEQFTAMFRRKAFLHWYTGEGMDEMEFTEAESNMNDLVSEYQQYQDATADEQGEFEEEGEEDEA
# Chain of KIF18a-Microtubule Complex (Q8NI77 whole entry, looked up): as the sequence (Q8NI77 whole entry, looked up) above
# Chain of KIF18a-Microtubule Complex (Q2XVP4 whole entry partner, looked up): as the sequence (Q2XVP4 whole entry partner, looked up) above
# Chain of KIF18a-Microtubule Complex (P02554 whole entry partner, looked up): as the sequence (P02554 whole entry partner, looked up) above
SMILES,"IC50 [2, 3] [nM]",other results
"CCS(=O)(=O)Nc1ccc2c(c1)C1(CCC3(CC3)CC1)CN2C(=O)c1cc(S(=O)(=O)NC(C)(C)C)cs1 [Compound 269, N-(tert-butyl)-5-(5″- (ethylsulfonamido)dispiro[cyclopropane-1,1′-cyclohexane-4′,3″-indoline]-1″- carbonyl)thiophene-3-sulfonamide]",79,kon (on-rate from binding kinetics assay) [1]: 5560 M⁻¹ s⁻¹; disc. t1/2 (dissociation half-life ln(2)/koff) [1]: 8.7 h; Ki [1]: 4 nM; koff [1]: 2.22e-05 s⁻¹
"CC(C)(C)NS(=O)(=O)c1cc(C(=O)N2CC3(CCC4(CC4)CC3)c3cc(NS(C)(=O)=O)ccc32)cs1 [Compound 262, N-(tert-butyl)-4-(5″- (methylsulfonamido)dispiro[cyclopropane-1,1′-cyclohexane-4′,3″-indoline]-1″-carbonyl)thiophene-2-sulfonamide]",5.9,kon (on-rate from binding kinetics assay) [1]: 8890 M⁻¹ s⁻¹; disc. t1/2 (dissociation half-life ln(2)/koff) [1]: 6.7 h; Ki [1]: 0.31 nM; koff [1]: 2.86e-05 s⁻¹
"CS(=O)(=O)Nc1ccc2c(c1)C1(CCC3(CC3)CC1)CN2C(=O)c1cccc([C@H](O)C2CCCC2)n1 (single isomer, unassigned) [Compound 317b]",10,koff (off-rate from binding kinetics assay) [1]: 9.72e-05 s⁻¹; kon (on-rate from binding kinetics assay) [1]: 16400 M⁻¹ s⁻¹; disc. t1/2 (dissociation half-life ln(2)/koff) [1]: 2.0 h; Ki [1]: 5.9 nM
CC(C)(C)NS(=O)(=O)c1cccc(C(=O)N2C[C@]3(CC[C@H](C(F)F)CC3)c3cc(NS(C)(=O)=O)ccc32)c1 [Compound 162a],15,koff (off-rate from binding kinetics assay) [1]: 1.53e-05 s⁻¹; kon (on-rate from binding kinetics assay) [1]: 8060 M⁻¹ s⁻¹; disc. t1/2 (dissociation half-life ln(2)/koff) [1]: 13 h; Ki [1]: 1.9 nM
"CC(C)(C)NS(=O)(=O)c1ccc(C(=O)N2CC3(CCCCC3)c3cc(NS(C)(=O)=O)ccc32)o1 [Compound 149, N-(tert-butyl)-5-(5′-(methylsulfonamido)spiro[cyclohexane-1,3′-indoline]-1′-carbonyl)furan-2-sulfonamide]",78,
"CCS(=O)(=O)Nc1ccc2c(c1)C1(CCC3(CC3)CC1)CN2C(=O)c1csc(S(=O)(=O)NC(C)(C)C)c1 [Compound 275, N-(tert-butyl)-4-(5″- (ethylsulfonamido)dispiro[cyclopropane-1,1′-cyclohexane-4′,3″-indoline]-1″- carbonyl)thiophene-2-sulfonamide]",8,
"O=C(c1cccc(S(=O)(=O)N2CC3(CCC3)C2)c1)N1CC2(CCC3(CC3)CC2)c2cc(NS(=O)(=O)CCO)ccc21 [Compound 228, N-(1″-(3-((2-azaspiro[3.3]heptan-2-yl)sulfonyl)benzoyl)dispiro[cyclopropane-1,1′-cyclohexane-4′,3″-indolin]-5″- yl)-2-hydroxyethane-1-sulfonamide]",4.6,
"O=C(c1cccc(S(=O)(=O)N2CCC(F)(F)CC2)c1)N1CC2(CCCC2)c2c(F)cccc21 [Compound 1, (3-((4,4-difluoropiperidin-1-yl)sulfonyl)phenyl)(4′-fluorospiro[cyclopentane-1,3′-indolin]-1′-yl)methanone]",1600,
"CS(=O)(=O)Nc1ccc2c(c1)C1(CCC3(CC3)CC1)CN2C(=O)c1csc(S(=O)(=O)N2CC3(CCO3)C2)c1 [Compound 283, N-(1″-(5-((1-oxa-6-azaspiro[3.3]heptan-6-yl)sulfonyl)thiophene-3-carbonyl)dispiro[cyclopropane-1,1′-cyclohexane-4′,3″-indolin]-5″- yl)methanesulfonamide]",18,
"CS(=O)(=O)Nc1ccc2c(c1)C1(CCCCC1)CN2C(=O)c1cccc(S(=O)(=O)N2CCCCC2)c1 [Compound 240, N-(1′-(3-(piperidin-1-ylsulfonyl)benzoyl)spiro[cyclohexane-1,3′-indolin]-5′-yl)methanesulfonamide]",40,
"O=C(c1cccc(S(=O)(=O)N2CCCCC2)c1)N1CC2(CCCCC2)c2cc(O)ccc21 [Compound 166, (5′-hydroxyspiro[cyclohexane-1,3′-indolin]-1′-yl)(3-(piperidin-1-ylsulfonyl)phenyl)methanone]",1100,
"O=C(c1cccc(S(=O)(=O)NC2CC(F)(F)C2)c1)N1CC2(CCC3(CC3)CC2)c2cc(NS(=O)(=O)CCO)ccc21 [Compound 230, N-(3,3-difluorocyclobutyl)-3-(5″-((2-hydroxyethyl)sulfonamido)dispiro [cyclopropane-1,1′-cyclohexane-4′,3″- indoline]-1″- carbonyl)benzenesulfonamide]",14,
"CS(=O)(=O)Nc1ccc2c(c1)C1(CCCCC1)CN2C(=O)c1cccc(S(=O)(=O)N2CCC2)c1 [Compound 45, N-(1′-(3-(azetidin-1-ylsulfonyl)benzoyl)spiro[cyclohexane-1,3′-indolin]-5′-yl)methanesulfonamide]",270,
"CC1(F)CCC2(CC1)CN(C(=O)c1cccc(S(=O)(=O)NC(C)(C)C)c1)c1ccc(NS(C)(=O)=O)cc12 (stereo not drawn) [Compound 329, N-(tert-butyl)-3-(4-fluoro-4-methyl-5′-(methylsulfonamido)spiro[cyclohexane-1,3′-indoline]-1′-carbonyl)benzenesulfonamide]",72,
"CS(=O)(=O)Nc1ccc2c(c1)C1(CCC3(CC3)CC1)CN2C(=O)c1cccc(CN2CCCO2)c1 [Compound 346, N-(1″-(3-(isoxazolidin-2-ylmethyl)benzoyl)dispiro[cyclopropane-1,1′-cyclohexane-4′,3″-indolin]-5″- yl)methanesulfonamide]",310,
"CC1(NS(=O)(=O)c2cccc(C(=O)N3CC4(CCC5(CC5)CC4)c4cc(NS(C)(=O)=O)ccc43)c2)CC(F)(F)C1 [Compound 224, N-(3,3-difluoro-1-methylcyclobutyl)-3-(5″- (methylsulfonamido)dispiro[cyclopropane-1,1′-cyclohexane-4′,3″-indoline]-1″-carbonyl)benzenesulfonamide]",23,
"CC(NS(=O)(=O)c1cccc(C(=O)N2CC3(CCC4(CC4)CC3)c3cc(NS(C)(=O)=O)ccc32)c1)C1CC1 (stereo not drawn) [Compound 186, N-(1-cyclopropylethyl)-3-(5″- (methylsulfonamido)dispiro[cyclopropane-1,1′-cyclohexane-4′,3″-indoline]-1″-carbonyl)benzenesulfonamide]",12,
"Cc1cc(C(=O)N2CC3(CCC4(CC4)CC3)c3cc(NS(C)(=O)=O)ccc32)nc(CN2CCC(F)(F)CC2)n1 [Compound 343, N-(1″-(2-((4,4-difluoropiperidin-1-yl)methyl)-6-methylpyrimidine-4-carbonyl)dispiro[cyclopropane-1,1′-cyclohexane-4′,3″-indolin]-5″- yl)methanesulfonamide]",810,
"CC1CN(S(=O)(=O)c2cccc(C(=O)N3CC4(CCC5(CC5)CC4)c4cc(NS(C)(=O)=O)ccc43)c2)C1 [Compound 260, N-(1″-(3-((3-methylazetidin-1-yl)sulfonyl)benzoyl)dispiro[cyclopropane-1,1′-cyclohexane-4′,3″-indolin]-5″- yl)methanesulfonamide]",12,
"C=CCC1CC1NS(=O)(=O)c1cccc(C(=O)N2CC3(CCC4(CC4)CC3)c3cc(NS(C)(=O)=O)ccc32)c1 (stereo not drawn) [Compound 235, N-(2-allylcyclopropyl)-3-(5″- (methylsulfonamido)dispiro[cyclopropane-1,1′-cyclohexane-4′,3″-indoline]-1″-carbonyl)benzenesulfonamide]",22,
"CN(c1cccc(C(=O)N2CC3(CCC4(CC4)CC3)c3cc(NS(C)(=O)=O)ccc32)c1)C1CCCC1 [Compound 348, N-(1″-(3-(cyclopentyl(methyl)amino)benzoyl)dispiro[cyclopropane-1,1′-cyclohexane-4′,3″-indolin]-5″- yl)methanesulfonamide]",190,
"CCN(c1ccc2c(c1)C1(CCC3(CC3)CC1)CN2C(=O)c1cccc(S(=O)(=O)N2CCC(F)(F)CC2)c1)S(C)(=O)=O [Compound 32, N-(1″-(3-((4,4-difluoropiperidin-1-yl)sulfonyl)benzoyl)dispiro[cyclopropane-1,1′-cyclohexane-4′,3″-indolin]-5″- yl)-N-ethylmethanesulfonamide]",78,
"CS(=O)(=O)Nc1ccc2c(c1)C1(CCC3(CC3)CC1)CN2C(=O)c1cccc(S(=O)(=O)NC(CO)C2CC2)c1 (stereo not drawn) [Compound 214, N-(1-cyclopropyl-2-hydroxyethyl)-3-(5″- (methylsulfonamido)dispiro[cyclopropane-1,1′-cyclohexane-4′,3″-indoline]-1″-carbonyl)benzenesulfonamide]",80,
"COC1CC(NS(=O)(=O)c2cccc(C(=O)N3CC4(CCC5(CC5)CC4)c4cc(NS(C)(=O)=O)ccc43)c2)C1 (stereo not drawn) [Compound 222, N-(3-methoxycyclobutyl)-3-(5″- (methylsulfonamido)dispiro[cyclopropane-1,1′-cyclohexane-4′,3″-indoline]-1″-carbonyl)benzenesulfonamide]",,IC50 [2]: 100 nM
C=C1CN(S(=O)(=O)c2cccc(C(=O)N3CC4(CCC5(CC5)CC4)c4cc(NS(C)(=O)=O)ccc43)c2)C1 [Compound 258],14,
"CS(=O)(=O)Nc1ccc2c(c1)C1(CCC3(CC3)CC1)CN2C(=O)c1cccc([S+]([O-])C2CCCC2)c1 (stereo not drawn) [Compound 270, N-(1″-(3-(cyclopentylsulfinyl)benzoyl)dispiro [cyclopropane-1,1′-cyclohexane-4′,3″- indolin]-5″-yl)methanesulfonamide]",110,
